Columns and labels:
[1] = tested on: splenectomized NSG immunodeficient mice; assay: ECG-gated whole body microPET/CT imaging of NSG immunodeficient mice; type: in vivo, mouse; settings: for time activity curve (TAC) of the heart, pattern: observation period 20-30 minutes; for anatomic distribution of FDG in the heart (fused microPET/CT images) / whole body distribution of FDG activity on microPET image / urinary excretion of FDG (kidneys, bladder) on microPET image: tail vein injection; for whole body distribution of FDG activity on microPET image: injected activity differs per figure
Procedure: 4-6 wk old splenectomized NSG immunodeficient mice (Jax Lab) were fasted O/N and phlebotomized (200-250 μl), prior to microPET imaging with an INVEON PET/CT preclinical scanner (Siemens). […]
PET images were analyzed with INVEON workstation software (Siemens). Patlak compartment plot option was chosen. For 3D PET and 4D PET data sets, VOIs were selected manually based on corresponding CT images: heart, leg muscle, liver, kidney and brain.
ECG-gated whole body microPET imaging of NSG immunodeficient mice: 4-6 week old splenectomized NOD scid gamma (NSG™) immunodeficient mice were obtained from The Jackson Laboratory. Mice were placed in specialized housing for immunodeficient mouse in the Moffitt Cancer Center (MCC) vivarium. Approval for all animal experimentation was first obtained from the University of South Florida (USF) Institutional Animal Care and Use Committee (IACUC). All animal experimentation was performed in accordance to federal regulations and USF IACUC principles and procedures. Animal imaging was performed in the MCC Small Animal Imaging Laboratory with an INVEON PET/CT (Siemens Medical Inc., Knoxville, Tenn.) preclinical scanner. Mice are first fasted the night before microPET imaging and undergo phlebotomy of ≈200-250 μl whole blood via retro-orbital venous plexus puncture immediately prior to microPET imaging. Blood glucose from the phlebotomized blood is measured. A tail vein microcatheter is placed in each mouse under inhalational isoflurane anesthesia. […] The PET part of the system has 64 detector blocks with total field of view (FOV) 12.7 cm and a spatial resolution of 1.4 mm. […] The ECG signal in each mouse was detected with three flat electrodes placed in two front and one rear limbs of each animal (ground lead on a rear leg). […] The threshold for TTL cardiac gating signals was set in a rising mode of R-wave peak. The PET list-mode data were reconstructed using 3D-OSEM iterative algorithm with four iterations and eight subsets, with a final image volume of 256×256×256 voxels. Voxel effective dimensions were 1.4×1.4×1.4 mm. For each animal there are three data sets: standard 3-dimensional (3D) PET reconstruction, resulting in a motion-time average 3D PET image; dynamic 3D PET reconstruction with 30 frames; and the phase-based 4-dimensional (regular 3-dimensional plus time, 4D) PET cardiac reconstruction, with four cardiac gates binning. In all cases, CT attenuation correction was applied to the PET images.
PET images of the mice were analyzed using INVEON Workstation Software (Siemens Medical Inc., Knoxville, Tenn.). Vendor software-supplied Patlak compartment plot option was selected (Patlak et al., 1983). For 3D PET and 4D PET data sets multiple volumes of interest (VOI) were selected manually based on corresponding CT images including: heart, leg muscle, liver, kidney and brain. […] Dynamic activity curves were plotted for VOIs using dynamic 3D PET data set for each animal. The 4D PET data were used for defining cardiac function. First the heart was segmented on CT images based on anatomical features, after that segmented volume (cardiac PET VOI) was transferred into co-registered PET images.

human RBCs = assay: FDG uptake by human RBCs (% total FDG incorporation, dose calibrator counting); type: cell-based; settings: for mean % total FDG incorporation: 30' 37° C. incubation with 37-74 MBq FDG (text b108)
Procedure: […] 30′, centrifuged 1000 g 10′, and washed twice in 4× volume 1×EDTA solution. […] Sample/wash aliquots were counted in an Atomlab 600 dose calibrator (Biodex) to measure % retained FDG.
Human red blood cell (RBC) preparation and FDG-RBC labeling: Packed human red blood cells collected in standard anticoagulant citrate dextrose (ACD) solution (either ≤24 hours post phlebotomy or ˜5 day post phlebotomy) were obtained from Zen-Bio, Inc. 370-740 Megabecquerel (MBq) (1 ml) USP grade 2-deoxy-2-(^18F)fluoro-D-glucose (FDG) were obtained from Cardinal Health. Vendor supplied human RBCs are centrifuged 1000 g 10′, and the remaining anticoagulant and buffy coat residual are gently aspirated. RBCs are then gently washed in a 4× volume of filter sterilized “1×EDTA” solution (140 mM NaCl, 4 mM KCl, 2.5 mM Ethylenediaminetetraacetic acid dipotassium salt dihydrate (K2EDTA dihydrate)), centrifuged at 1000 g 10′, and the wash is manually aspirated. […] Samples are then centrifuged at 1000 g 10′ and the supernatant is carefully aspirated. RBCs are then washed and centrifuged twice with 4× volumes of 1×EDTA solution. For experiments characterizing residual unincorporated FDG, a 3rd wash/centrifugation step was performed. […] Aliquots from all samples and washes are counted with the Atomlab™ 600 dose calibrator (Biodex Medical Systems, Inc.).

[2] = tested on: splenectomized NSG immunodeficient mouse; assay: microPET imaging of mice injected with FDG-labeled human erythrocytes or free FDG (Example 2); type: in vivo; settings: tail vein catheter injection (≈47 microCuries FDG-labeled erythrocytes or ≈32 microCuries free FDG), 20-minute PET
Procedure: Approximately 47 microCuries of FDG-labeled human erythrocytes were injected via tail vein catheter into a splenectomized NSG immunodeficient mouse. The mouse was placed into a Siemens INVEON microPET scanner, and 18-F PET imaging of the mouse was performed over a 20-minute time period.
Approximately 32 microCuries of free FDG were injected via tail vein catheter into a second splenectomized NSG immunodeficient mouse. The mouse was placed into the Siemens INVEON microPET scanner, and 18-F PET imaging of the mouse was performed over a 20-minute time period.

human red blood cells = assay: FDG labeling of human red blood cells, 5 minute incubation at room temperature (Example 1); type: cell-based
Procedure: 150 microCuries of FDG in a 100 microliter volume was incubated with 250 microliters of human red blood cells to a final solution volume of 500 microliters (NaCl/KCl/EDTA solution contains 140 mM NaCl, 4 mM KCl, 2.5 mM K2EDTA dihydrate). FDG incubation duration=5 minutes at room temperature. Triplicate samples were used. Samples were centrifuged 1000 g 10 minutes after 5 minute FDG incubation, and RBC pellet was washed twice with 1.0 ml of NaCl/KCl/EDTA solution. A sample of the collected supernatant and a pellet sample was counted in a gamma counter with 18-F gating. 3% incorporation rate=4.5 microCurie of incorporated FDG/250 microliters of human red blood cell=18 microCurie of FDG/1 ml human red blood cells. Thus, 60 milliliters of whole blood from a patient should yield approximately 432-486 microCuries of FDG labeled red blood cells. (Assumes average 40% female hematocrit and 45% male hematocrit).

2-deoxy-2-(^18F)fluoro-D-glucose [FDG]
time activity curve (TAC) of the heart, pattern [1]: increases steadily over the observation period of 20-30 minutes | time activity curve (TAC) of the heart, pattern ([1]; listed as free FDG): steady increase in FDG activity over time | anatomic distribution of FDG in the heart (fused microPET/CT images) [1]: marked myocardial uptake of FDG in the left ventricle | whole body distribution of FDG activity on microPET image ([1]; listed as free 18F-FDG): normal marked FDG uptake in the myocardium | whole body distribution of FDG activity on microPET image ([1]; listed as free FDG): intense FDG accumulation in the myocardium and brain | anatomic distribution of FDG in the heart (fused microPET/CT images) ([1]; listed as free 18F-FDG): intense physiologic FDG uptake by myocardium of the left ventricle | urinary excretion of FDG (kidneys, bladder) on microPET image ([1]; listed as free 18F-FDG): physiologic FDG excretion into the kidneys and bladder | urinary excretion of FDG (kidneys, bladder) on microPET image ([1]; listed as free FDG): marked urinary excretion in the kidneys and bladder | FDG incorporated in packed RBCs on clinical translation of the labeling/wash protocol (human RBCs; 10 ml's packed RBCs, initial 740 MBq FDG, inventor's prediction): up to 370 MBq | mean % total FDG incorporation (human RBCs; 250 μl 1 day old RBCs): 85.3%±1.8% | % total FDG incorporation (human RBCs; 250 μl 1 day old human RBCs, 37° C., 30' (text b110)): 73.3%±3.6% | % total FDG incorporation (human RBCs; 250 μl 1 day old human RBCs, 37° C., 30 minutes (time course)): 78.3%±0.9 | % total FDG incorporation (human RBCs; 250 μl 1 day old human RBCs, 37° C., 1 hour (time course)): 85.0%±0.0% | % total FDG incorporation (human RBCs; 250 μl 1 day old human RBCs, 37° C., 2 hours (FIG. 3 legend)): 73.3%±3.6% | % total FDG incorporation (human RBCs; 250 μl 1 day old human RBCs, 37° C., 2 hours (time course)): 85.3%±0.3% | % total FDG incorporation (human RBCs; 250 μl 1 day old human RBCs, 2 hours (FIG. 4 legend)): 85.3%±1.8% | % total FDG incorporation (human RBCs; 250 μl 1 day old human RBCs, room temperature (~25° C.), 2 hours): 10.3%±1.1% | % total FDG incorporation (human RBCs; 250 μl 5 day old human RBCs, 2 hours (FIG. 4 legend)): 3.3%±0.2% | mean % total FDG incorporation (human RBCs; 5 day old RBCs): 3.3%±0.2% | internal FDG uptake (in words) (human RBCs; human RBCs collected and used ≈5 days after phlebotomy): negligible rate of internal FDG uptake | tracer distribution on PET image [2]: majority of free FDG uptake is seen in the heart muscle, bladder, and kidneys | incorporation rate (human red blood cells; 150 microCuries FDG, 250 microliters human red blood cells, 5 minutes at room temperature): 3% | FDG/1 ml human red blood cells (human red blood cells; 5 minutes at room temperature): 18 microCurie | incorporated FDG/250 microliters of human red blood cell (human red blood cells; 5 minutes at room temperature, 150 microCuries FDG): 4.5 microCurie | FDG labeled red blood cells yielded from 60 milliliters of whole blood from a patient (human red blood cells; extrapolated, assumes 40% female and 45% male hematocrit): 432-486 microCuries

Source: US10561379B2, “In vivo positron emission tomography-based perfusion/blood pool imaging using labeled erythrocytes” (H. LEE MOFFITT CANCER CENTER AND RESEARCH INSTITUTE, INC., priority 2016, dated 2020)
